Values quoted from earlier work in article PMC12128972, “TYRA-300, an FGFR3-selective inhibitor, promotes bone growth in two FGFR3-driven models of chondrodysplasia” (JCI Insight, 2025).

How the values were obtained:
[1] = tested on: Fgfr3^Y367C/+ mouse model, which mimics the phenotype of ACH; set-up: method as in PMID 27064282, PMID 23200862; conditions: infigratinib 2 mg/kg, starting at 7 days of age for 10 days; cited from earlier work
[2] = tested on: growth plate chondrocytes of Fgfr3^Y367C/+ mice; conditions: previous studies; cited from earlier work
[3] = tested on: Fgfr3^G374R mouse model of ACH; conditions: treatment initiated 1 day after birth; cited from earlier work
[4] = tested on: children with ACH; set-up: method as in earlier work; conditions: children with ACH aged 5-12 years, once daily s.c.; 95% CI 1.22-1.97; cited from earlier work

Row | Molecule | bone growth compared with vosoritide (800 μg/kg) [1] | type X collagen staining in the HZCs [2] | premature fusion of the intersphenoidal synchondrosis [3] | increase from baseline of average linear growth velocity greater than placebo [4] [cm/year]
1 | CCN1CCN(c2ccc(Nc3cc(N(C)C(=O)Nc4c(Cl)c(OC)cc(OC)c4Cl)ncn3)cc2)CC1 [infigratinib] | more bone growth than vosoritide | partial restoration | did not rescue premature fusion | –
2 | vosoritide: C-natriuretic peptide (CNP) analog that is a once daily subcutaneous injection (PGQEHPNARKYKGANKKGLSKGCFGLKLDRIGSMSGLGC; chains of the INN, looked up) | – | partial restoration | – | 1.57
